From ChEMBL document CHEMBL1667729, “Malyngamide 2, an oxidized lipopeptide with nitric oxide inhibiting activity from a Papua New Guinea marine cyanobacterium” (J Nat Prod, 2011)
Active and inactive are the calls of the source. No cut-off for these calls is given here. Numbered stars: 1 amine (or outer) side, 2 acyl side, 3 side chain; on linkers, the order of the positions; unused ones are H or OH. Square brackets hold non-standard residues; d marks the D form. Peptide text beside a SMILES is read from it. PheOxz = O=C(c1coc([C@H](Cc2ccccc2)N[*:1])n1)[*:2]; X2 = CC[C@H](C)[C@H](N[*:1])c1nc(C(=O)[*:2])co1; X1 = Cc1oc([C@@H](N[*:1])C(C)C)nc1C(=O)[*:2]

What was measured:
[1] = tested on: NCI-H460; assay: Cytotoxicity against human H460 cells; type: functional, cell-based
[2] = tested on: Neuro2a; assay: Inhibition of voltage-gated sodium channel in mouse Neuro2a cells at 17.5 uM
[3] = tested on: RAW264.7; assay: Anti-inflammatory activity against mouse RAW264.7 cells assessed as inhibition of LPS-induced NO production after 24 hrs; type: functional, cell-based; settings: RAW264.7, 24 h
[4] = tested on: RAW264.7; assay: Cytotoxicity against mouse RAW264.7 cells at 21 uM; type: functional; settings: read-out: Survival

SMILES	IC50 [1]	inhibition [2]	IC50 [3]	viability at 21 µM [4]
CC[C@H](C)[C@@H]1NC(=O)[C@@H]2CCCN2C(=O)[C@H](Cc2ccccc2)NC(=O)c2coc(n2)[C@H](Cc2ccccc2)NC(=O)c2nc(oc2C)[C@H](C(C)C)NC(=O)CNC(=O)[C@@H]2CCCN2C(=O)[C@@H]2CCCN2C(=O)[C@H](C)NC(=O)c2coc1n2 [WEWAKAZOLE] (cyclo(APPG[X1][PheOxz]FP[X2]))	10.1 µM	inactive	–	–
CCCCCCC[C@@H](C/C=C/CCC(=O)NC/C(=C/Cl)[C@@H]1C(=O)[C@H](O)C[C@@H](O)[C@]1(C)O)OC [MALYNGAMIDE]	27.3 µM	–	8 µM	94%
